Test results reported in patent publication US11324728B2, “Dosing regimens for the treatment of fungal infections” (Seren Pharmaceuticals Inc., priority 2017, dated 2022).
“And” between values parts separate entries of the source, which are not always exact repeats. Equal entries are not always repeated.

System: onychomycosis of the toenail
Test: Phase II clinical study: overall clinical efficacy
Type: in vivo, human
Procedure: A Phase II clinical pharmacology study was conducted in subjects with onychomycosis of the toenail. The study investigated the pharmacokinetics, efficacy and safety of three different dosing regimens of fosravuconazole. […] The three treatment groups were as follows: • a.
The efficacy endpoints were: (1) overall clinical efficacy; (2) changes over time in efficacy; (3) confirmation of elements of dermatophytes by direct microscopy; and (4) results of identification of dermatophytes by the polymerase chain reaction (PCR) method.
Overall clinical efficacy (cure rate and response rate) at Weeks 48 and 24 after the study treatment initiation for the efficacy analysis population (per protocol set, PPS) are presented in Tables 1 and 2 below. Overall clinical efficacy (cure rate and response rate) at Weeks 48 and 24 after the study treatment initiation for the full analysis set (FAS) are presented in Tables 3 and 4 below.

[1] = 100 mg once daily, Week 24, FAS
[2] = 100 mg once daily, Week 24, PPS
[3] = 100 mg once daily, Week 48, FAS
[4] = 100 mg once daily, Week 48, PPS
[5] = 200 mg pulse treatment, Week 24, FAS
[6] = 200 mg pulse treatment, Week 24, PPS
[7] = 200 mg pulse treatment, Week 48, FAS
[8] = 200 mg pulse treatment, Week 48, PPS
[9] = 400 mg pulse treatment, Week 24, FAS
[10] = 400 mg pulse treatment, Week 24, PPS
[11] = 400 mg pulse treatment, Week 48, FAS
[12] = 400 mg pulse treatment, Week 48, PPS

Compound: C[C@@H](c1nc(-c2ccc(C#N)cc2)cs1)[C@@](Cn1cncn1)(OCOP(=O)(O)O)c1ccc(F)cc1F [fosravuconazole, 4-[2-[(1R,2R)-2-(2,4-difluorophenyl)-1-methyl-2-[(phosphonooxy)methoxy]-3-(1H-1,2,4-triazol-1-yl)propyl]-4-thiazolyl]benzo-nitrile]
- Cure rate and 95% CI [1]: 0.0 (0.0, 13.2) %
- Cured [1]: 0
- Failed [1]: 0
- Improved [1]: 6
- Markedly improved [1]: 20
- Response rate and 95% CI [1]: 76.9 (56.4, 91.0) %
- Slightly improved [1]: 0
- Cure rate and 95% CI [2]: 0.0 (0.0, 13.7) %
- Cured [2]: 0
- Failed [2]: 0
- Improved [2]: 6
- Markedly improved [2]: 19
- Response rate and 95% CI [2]: 76.0 (54.9, 90.6) %
- Slightly improved [2]: 0
- Cure rate and 95% CI [3]: 38.5 (20.3, 59.4) %
- Cured [3]: 10
- Failed [3]: 0
- Improved [3]: 1
- Markedly improved [3]: 15
- Response rate and 95% CI [3]: 96.2 (80.4, 99.9) %
- Slightly improved [3]: 0
- Cure rate and 95% CI [4]: 40.0% and 40.0 (21.2, 61.3) %
- Cured [4]: 10
- Failed [4]: 0
- Improved [4]: 1
- Markedly improved [4]: 14
- Response rate and 95% CI [4]: 96.0% and 96.0 (79.7, 99.8) %
- Slightly improved [4]: 0
- Cure rate and 95% CI [5]: 3.6 (0.1, 18.3) %
- Cured [5]: 1
- Failed [5]: 0
- Improved [5]: 10
- Markedly improved [5]: 16
- Response rate and 95% CI [5]: 60.7 (40.6, 78.4) %
- Slightly improved [5]: 1
- Cure rate and 95% CI [6]: 4.0 (0.2, 20.3) %
- Cured [6]: 1
- Failed [6]: 0
- Improved [6]: 9
- Markedly improved [6]: 14
- Response rate and 95% CI [6]: 60.0 (38.7, 78.8) %
- Slightly improved [6]: 1
- Cure rate and 95% CI [7]: 32.0 (15.0, 53.5) %
- Cured [7]: 8
- Failed [7]: 0
- Improved [7]: 4
- Markedly improved [7]: 13
- Response rate and 95% CI [7]: 84.0 (64.0, 95.4) %
- Slightly improved [7]: 0
- Cure rate and 95% CI [8]: 27.3% and 27.3 (10.8, 50.2) %
- Cured [8]: 6
- Failed [8]: 0
- Improved [8]: 4
- Markedly improved [8]: 12
- Response rate and 95% CI [8]: 81.8% and 81.8 (59.8, 94.8) %
- Slightly improved [8]: 0
- Cure rate and 95% CI [9]: 0.0 (0.0, 11.2) %
- Cured [9]: 0
- Failed [9]: 0
- Improved [9]: 11
- Markedly improved [9]: 17
- Response rate and 95% CI [9]: 54.8 (36.1, 72.6) %
- Slightly improved [9]: 3
- Cure rate and 95% CI [10]: 0.0 (0.0, 11.2) %
- Cured [10]: 0
- Failed [10]: 0
- Improved [10]: 11
- Markedly improved [10]: 17
- Response rate and 95% CI [10]: 54.8 (36.1, 72.6) %
- Slightly improved [10]: 3
- Cure rate and 95% CI [11]: 40.7 (22.4, 61.2) %
- Cured [11]: 11
- Failed [11]: 0
- Improved [11]: 4
- Markedly improved [11]: 12
- Response rate and 95% CI [11]: 85.2 (66.3, 95.8) %
- Slightly improved [11]: 0
- Cure rate and 95% CI [12]: 40.7% and 40.7 (22.4, 61.2) %
- Cured [12]: 11
- Failed [12]: 0
- Improved [12]: 4
- Markedly improved [12]: 12
- Response rate and 95% CI [12]: 85.2% and 85.2 (66.3, 95.8) %
- Slightly improved [12]: 0
